The values that follow come from article PMC7525093, “Bis-Quinolinium Cyclophane Blockers of SK Potassium Channels Are Antagonists of M3 Muscarinic Acetylcholine Receptors” (Frontiers in Pharmacology, 2020).

One assay deals with SK2. On the set-up: method as in Benton D.C. et al., 2013. As to conditions: 125I-Apamin competition; ref Benton D.C. et al., 2013; read-out: Ki, SK2 channels; cited from earlier work.
In another assay the test system is SK potassium channels. Particulars: ref Campos Rosa et al., 1996; read-out: IC50, block of SK channels; cited from earlier work.
A further assay concerns mouse trachea. Nature of the assay: Isometric tracheal tension measurement (organ bath). Here is the method: (§1) Mice used in these studies were BALB/C mice from Jackson Labs. All animal procedures were reviewed and approved by the University of Texas Health Science Center at San Antonio Institutional Animal Care and Use Committee. For tracheal constriction studies, animals were deeply anesthetized with isoflurane and then sacrificed by cervical dislocation. Isometric tracheal contraction measurements were performed as previously described ([Semenov et al., 2012]). Trachea were removed and surrounding tissues dissected in ice-cold physiologic saline solution (PSS) consisting of 119 mM NaCl, 4.7 mM KCl, 2.0 mM CaCl2, 1.0 mM KH2PO4, 1.17 mM MgSO4, 18 mM NaHCO3, 0.026 mM EDTA, 11 mM glucose, and 12.5 mM sucrose. Trachea were cut below the pharynx and above the primary bronchus bifurcation. Two metal wires, attached to a force transducer and micrometer (Radnoti, LLC), were threaded into the lumen of the trachea. Trachea were placed into an oxygenated organ bath (95% O2, 5% CO2), at 37°C, pH 7.35 (after bubbling with 95% O2–5% CO2). Tracheal resting tension was readjusted to 1 gram over 1 h and then challenged with 67 mM potassium PSS with NaCl adjusted to 56.7 mM to maintain proper osmolarity (KPS). Trachea were challenged two or more times until reproducible contractile responses were achieved. All subsequent experimental drug responses were normalized to the KPS response. Bladder measurements were conducted in a similar manner as trachea with identical solutions. The bladder was excised and formed into a ring by cutting anterior and posterior portions before mounting on metal wires for force measurements. For the aorta preparation, the ascending thoracic aorta was excised and cut into 2–3 mm sections before mounting on wires for force measurements.

A further assay deals with SK3. On the set-up: method as in Benton D.C. et al., 2013. As to conditions: 125I-Apamin competition; ref Benton D.C. et al., 2013; read-out: Ki, SK3 channels; cited from earlier work.
The next assay deals with bladder. Put plainly: Isometric bladder ring tension measurement. Also noted: species or system mouse. As to conditions: 3.5 μM; 0.5 μM carbachol. Here is the method:
as §1, with “Bladder measurements were conducted in a similar manner as trachea with identical solutions. The bladder was excised and formed into a ring by cutting anterior and posterior portions before mounting on metal wires for force measurements. For the aorta preparation, the ascending thoracic aorta was excised and cut into 2–3 mm sections before mounting on wires for force measurements.” left out

A further assay concerns aorta. Put plainly: Isometric aortic ring tension measurement. As to conditions: 3.5 μM; precontracted to 300 nM phenylephrine. On the set-up: species or system mouse. Here is the method:
as §1, with “Bladder measurements were conducted in a similar manner as trachea with identical solutions. The bladder was excised and formed into a ring by cutting anterior and posterior portions before mounting on metal wires for force measurements. For the aorta preparation, the ascending thoracic aorta was excised and cut into 2–3 mm sections before mounting on wires for force measurements.” left out

For the next assay, the target named is T1, M3 mACHR (Homo sapiens, UniProt P20309).
T1 construct: expressed in transfected cells; host or cells: membranes of M3 mACHR-expressing CHO cells
T1 sequence (P20309 whole entry): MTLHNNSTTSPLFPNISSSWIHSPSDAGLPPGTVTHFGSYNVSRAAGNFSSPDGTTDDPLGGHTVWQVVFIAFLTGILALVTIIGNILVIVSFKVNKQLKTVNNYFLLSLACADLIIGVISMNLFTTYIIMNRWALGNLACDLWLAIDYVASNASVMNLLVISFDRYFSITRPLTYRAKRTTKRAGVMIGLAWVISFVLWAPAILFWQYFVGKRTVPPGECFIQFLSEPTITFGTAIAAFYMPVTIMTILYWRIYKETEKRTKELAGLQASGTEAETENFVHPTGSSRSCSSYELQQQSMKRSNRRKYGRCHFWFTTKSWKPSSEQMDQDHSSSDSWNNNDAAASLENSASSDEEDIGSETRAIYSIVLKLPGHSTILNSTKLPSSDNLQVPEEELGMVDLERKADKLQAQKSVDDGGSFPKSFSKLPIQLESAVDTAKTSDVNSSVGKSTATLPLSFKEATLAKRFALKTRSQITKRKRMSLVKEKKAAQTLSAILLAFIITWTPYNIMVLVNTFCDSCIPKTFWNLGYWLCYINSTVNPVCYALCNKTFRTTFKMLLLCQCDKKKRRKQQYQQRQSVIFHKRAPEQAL
Put plainly: [3H]-NMS competition binding, M3 mACHR-expressing CHO cell membranes. As to conditions: 0.9 nM [3H]-NMS. Here is the method:
Competition binding assays were done with [^3H]-N-methyl-scopolamine ([3H]-NMS, PerkinElmer) essentially as described ([Steinfeld et al., 2010]) with minor modifications. Membrane homogenates were prepared in HEPES assay buffer (20 mM HEPES, 100 mM NaCl, and 10 mM MgCl, pH 7.4) by trituration on ice through a 26-gauge needle followed by centrifugation at 39,000g in Sorval RC-6+ centrifuge. Membranes were resuspended in assay buffer and protein concentration determined by the method of Bradford using bovine serum albumin as a standard ([Bradford, 1976]). Membranes (25 µg) were incubated along with 0.9 nM ^3H- NMS without or with UCL1684 concentrations (10^-11M to 10^-4M in triplicate) for 120 min at 30°C in 96 multiwell GF/C filter plates (MilliporeSigma) coated with 0.3% polyethyleneimine (Sigma). The assay was terminated by rapid filtration using a MilliporeSigma vacuum manifold followed by three washes with ice-cold wash buffer (20mM HEPES, pH 7.4). Filters were removed and placed in 7 ml scintillation vials containing 5 ml scintillation fluid (National Diagnostics) and radioactivity counted using a Beckman LS-6500 ß-counter. Nonspecific binding was defined by 100 µM atropine. […]

Like-named read-outs stand apart in the source and are kept apart here. A value given as a limit tells only on which side of the number the result lay.

In general, IC50 refers to the concentration at which inhibition is half-maximal. As for `c1cc2cc(c1)C[n+]1ccc(c3ccccc31)NCc1ccc(cc1)CNc1cc[n+](c3ccccc13)C2` [UCL 1684, 6,12,19,20,25,26-Hexahydro-5,27:13,18:21,24-trietheno-11,7-metheno-7H-dibenzo [b,n] [1,5,12,16]tetraazacyclotricosine-5,13-diium dibromide], the Ki is 1 nM on SK2; 7.7 nM on SK3; 909 nM at M3 mACHR (n=3 separate experiments, read-out: Average Ki, competition binding); 1120 nM on M3 mACHR (single experiment shown, read-out: pKi, representative binding experiment (converted)). The IC50 in the assay on SK potassium channels is 3 nM; with mouse trachea (Mus musculus, read-out: IC50, relaxation of carbachol-precontracted trachea) it was 430 nM. For the same compound, the “Relaxation of precontracted trachea” value with mouse trachea was “near complete relaxation”. Further, the “Relaxation response of trachea, single dose” value in the assay on mouse trachea (3.5 μM, 0.5 μM carbachol) was determined as 95.4 ± 2.4. The “Reduction of carbachol-evoked ASM contractions” value in the assay on mouse trachea (carbachol-evoked) is above 90%. Also, the “Washout needed to restore tracheal responses to cholinergic agonists” value in the assay with mouse trachea (data not shown) was “at least an hour of washout”. Also, the “Relaxation response of bladder” value with bladder was 31.4 ± 8.4. In addition, the “Relaxation response of aorta” value in the assay with aorta was determined as 7.8 ± 4.3.
